Assay results from PMC9115881, “Penicillin Derivatives Inhibit the SARS-CoV-2 Main Protease by Reaction with Its Nucleophilic Cysteine” (Journal of Medicinal Chemistry, 2022).

Target: SARS-CoV-2 M^pro (Severe acute respiratory syndrome coronavirus 2, UniProt P0DTD1)
Experiment: Cocrystallization with M^pro, crystal structure
Conditions: 2.0 Å resolution, PDB 7Z59
Text: To investigate the mode of M^pro inhibition by penicillin derivatives, we carried out crystallographic studies and obtained a structure of M^pro complexed with a penicillin sulfone 20e-derived ligand following cocrystallization (C2 space group, 2.0 Å resolution; Supporting Information Figure S7). The structure was solved by molecular replacement using a reported M^pro structure (PDB ID: 6YB7([29])) as a search model. The overall fold of the structure is similar to those previously reported for M^pro (RMSD = 0.41 Å for M^pro complexed with PF-07321332 (8, nirmatrelvir; PDB ID: 7VH8);[68] Supporting Information Figure S7).
A frozen SARS-CoV-2 M^pro solution was thawed and diluted to 6 mg/mL (using 20 mM HEPES, pH 7.5, 50 mM NaCl). β-Lactam 20e was added to the protein solution to a final concentration of 10 mM; the mixture was incubated for 2 h at ambient temperature prior to dispensing the plates. The drop composition was: 0.15 μL protein–ligand solution, 0.3 μL 11%v/v PEG 4000, 0.1 M MES, pH 6.5, and 0.05 μL M^pro crystal seed stock. A M^pro crystal seed stock was prepared by crushing M^pro crystals with a pipette tip, suspending them in 30% PEG 4000, 5%v/v DMSO, 0.1 M MES pH 6.5, and vortexing for 60 s with approximately 10 glass beads (1.0 mm diameter, BioSpec products). The reservoir solution was: 11%v/v PEG 4K, 5%v/v DMSO, 0.1 M MES, pH 6.5. […]

## CC1(C)[C@H](C(=O)OCc2ccc(F)cc2F)N2C(=O)[C@@H](NC(=O)COc3ccccc3)[C@H]2S1(=O)=O [Compound 20e]
  covalent modification seen in the crystal structure: active site Cys145 S-acylation
